In experiment [1] the test system is LNCaP. The experiment is described as follows: Antitumor activity against human LNCAP cells xenografted in mouse assessed as induction of tumor shrinkage at 1 to 100 mg/kg, ip dosed every other day and measured after 6 weeks by microscopy. It is filed as functional, organism-based.
Experiment [2] has as its target T1, Nucleoside diphosphate phosphatase ENTPD5 (Homo sapiens) (UniProt O75356).
T1 sequence (whole entry): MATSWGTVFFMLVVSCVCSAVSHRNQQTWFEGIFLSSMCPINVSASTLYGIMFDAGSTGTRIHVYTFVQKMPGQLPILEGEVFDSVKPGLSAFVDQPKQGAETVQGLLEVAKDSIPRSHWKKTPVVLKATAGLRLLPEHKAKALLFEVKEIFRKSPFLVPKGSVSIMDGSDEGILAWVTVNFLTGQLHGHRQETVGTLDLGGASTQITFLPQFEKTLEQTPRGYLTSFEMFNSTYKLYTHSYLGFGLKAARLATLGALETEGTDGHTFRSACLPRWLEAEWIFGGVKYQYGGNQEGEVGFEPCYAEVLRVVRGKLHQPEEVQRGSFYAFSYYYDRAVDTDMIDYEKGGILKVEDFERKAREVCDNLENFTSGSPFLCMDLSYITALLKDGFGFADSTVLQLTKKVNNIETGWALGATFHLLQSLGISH
The experiment is described as follows: Inhibition of human recombinant ENTPD5 expressed in insect cells assessed as reduction in UDP hydrolysis at 1 uM incubated for 1 hr in presence of UMP, GTP and ATP by Escherichia coli UMP kinase pyrH catalyzed UMP phosphorylation coupled luciferase assay.

The target of experiment [3] is T2, Ectonucleoside triphosphate diphosphohydrolase 5 (Mus musculus) (UniProt Q9WUZ9).
T2 sequence (whole entry): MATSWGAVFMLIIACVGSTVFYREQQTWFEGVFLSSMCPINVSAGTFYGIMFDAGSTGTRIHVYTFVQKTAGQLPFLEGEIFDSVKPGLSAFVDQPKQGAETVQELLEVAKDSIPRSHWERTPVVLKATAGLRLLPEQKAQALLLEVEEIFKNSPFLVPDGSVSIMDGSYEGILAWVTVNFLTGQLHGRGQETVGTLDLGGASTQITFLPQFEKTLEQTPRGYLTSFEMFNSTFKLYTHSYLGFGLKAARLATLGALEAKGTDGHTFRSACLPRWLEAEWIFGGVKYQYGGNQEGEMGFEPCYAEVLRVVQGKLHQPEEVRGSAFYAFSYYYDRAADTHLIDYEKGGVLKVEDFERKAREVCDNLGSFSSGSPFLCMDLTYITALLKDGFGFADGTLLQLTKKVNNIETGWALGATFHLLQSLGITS
The experiment is described as follows: Inhibition of ENTPD5 in PTEN knockout mouse MEF cells assessed as induction of ER stress by measuring increase in GRP78/BiP expression at 30 uM incubated for 24 hrs by Western blotting analysis. It is filed as cell-based.

For experiment [4], the target named is T3, Uridylate kinase (Escherichia coli (strain K12)) (UniProt P0A7E9).
T3 sequence (whole entry): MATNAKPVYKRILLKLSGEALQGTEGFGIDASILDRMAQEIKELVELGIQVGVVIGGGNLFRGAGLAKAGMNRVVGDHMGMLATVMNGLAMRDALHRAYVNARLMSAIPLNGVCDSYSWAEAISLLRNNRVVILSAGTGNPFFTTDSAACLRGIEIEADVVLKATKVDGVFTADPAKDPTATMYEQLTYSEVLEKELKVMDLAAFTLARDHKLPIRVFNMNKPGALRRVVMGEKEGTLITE
The experiment can be described thus: Inhibition of recombinant Escherichia coli UMP kinase pyrH catalyzed UMP phosphorylation in presence of GTP and ATP incubated for 1 hr by luminescence based assay.

In experiment [5] the target is T1, Nucleoside diphosphate phosphatase ENTPD5 (Homo sapiens). The experiment is described as follows: Inhibition of human recombinant ENTPD5 expressed in insect cells assessed as reduction in UDP hydrolysis up to 10 uM incubated for 1 hr in presence of UMP, GTP and ATP by Escherichia coli UMP kinase pyrH catalyzed UMP phosphorylation coupled luciferase assay.
Experiment [6] shares this target. The experiment can be described thus: Inhibition of human recombinant ENTPD5 expressed in insect cells assessed as reduction in reduction in UDP hydrolysis by measuring inorganic phosphate release incubated for 1 hr by malachite green based assay.
Experiment [7] relates to LNCaP. The experiment can be described thus: Antitumor activity against human LNCAP cells xenografted in mouse assessed as reduction in cells left in matrigels at 1 to 100 mg/kg, ip dosed every other day and measured after 6 weeks by hematoxylin and eosin staining based microscopy. It is filed as functional, organism-based.

Consider 18 molecules from ChEMBL document CHEMBL4418495, “Entpd5 inhibitors” (2012).

Calls of active or inactive are those of the source. Unless noted, the rule behind the calls is not given here.

Take `O=C1NC(=O)C(=Cc2ccc(-c3ccc(I)cc3)o2)C(=O)N1`: the outcome in the experiment on LNCaP [1] and with LNCaP [7] was Active. The inhibition entry in experiment [2], in experiment [3] and in experiment [6] was “Active” in each case. The inhibition result in experiment [4] is “inactive”. Further, the inhibition result in experiment [5] is “Dose-dependent effect”.
Consider `O=C1/C(=C/c2ccco2)C(=O)N(c2ccc(Br)cc2)C(=S)N1c1ccccc1`, for which the result in the experiment with LNCaP [1] and in the experiment with LNCaP [7] was Active. The inhibition result in experiment [2], in experiment [3] and in experiment [6] was “Active” each time. In addition, the inhibition result in experiment [4] was “inactive”. In addition, in experiment [5], the inhibition entry was “Dose-dependent effect”.
Take `O=C1/C(=C/c2ccc(O)c([N+](=O)[O-])c2)SC(=S)N1c1cccc(Cl)c1`: the result in the experiment with LNCaP [1] and with LNCaP [7] was Active. Besides, the inhibition result in experiment [2], in experiment [3] and in experiment [6] was “Active” throughout. Besides, the inhibition result in experiment [4] is “inactive”. The inhibition entry in experiment [5] was “Dose-dependent effect”.
Regarding `O=C(Oc1ccc2ccccc2c1)c1ccc2c(c1)C1C=CCC1C(C(=O)O)N2` (stereo unspecified), the result with LNCaP [1] and with LNCaP [7] was Active. Besides, the inhibition entry in experiment [2], in experiment [3] and in experiment [6] was “Active” throughout. For the same molecule, in experiment [4], the inhibition result is “inactive”. For the same molecule, the inhibition result in experiment [5] was “Dose-dependent effect”.
Turning to `O=C1NC(=S)N(c2ccccc2)C(=O)/C1=C/c1cccn1-c1ccc(Cl)cc1`, the result with LNCaP [1] and in the experiment on LNCaP [7] was Active. In addition, the inhibition entry in experiment [2], in experiment [3] and in experiment [6] was “Active” throughout. Also, the inhibition result in experiment [4] was “inactive”. The inhibition entry in experiment [5] is “Dose-dependent effect”.
Consider `O=C1NC(=S)NC(=O)C1=Cc1ccc(-c2ccc(Cl)c(Cl)c2)o1`, for which the result in the experiment with LNCaP [1] and with LNCaP [7] was Active. Moreover, the inhibition result in experiment [2], in experiment [3] and in experiment [6] was “Active” in each case. In experiment [4], the inhibition result was “inactive”. Moreover, the inhibition result in experiment [5] is “Dose-dependent effect”.
Take `O=C1/C(=C/c2ccc(O)c([N+](=O)[O-])c2)SC(=S)N1c1cccc(C(F)(F)F)c1`: the outcome with LNCaP [1] and in the experiment on LNCaP [7] was Active. The inhibition entry in experiment [2], in experiment [3] and in experiment [6] was “Active” throughout. Moreover, in experiment [4], the inhibition result was “inactive”. Also, the inhibition entry in experiment [5] is “Dose-dependent effect”.
For the molecule `O=C1NC(=S)NC(=O)C1=Cc1ccc(-c2ccc(Br)cc2)o1`, the result in the experiment with LNCaP [1] and in the experiment with LNCaP [7] was Active. In addition, the inhibition result in experiment [2], in experiment [3] and in experiment [6] was “Active” each time. In experiment [4], the inhibition result was “inactive”. Also, in experiment [5], the inhibition result is “Dose-dependent effect”.
For `O=C1NC(=S)N(c2ccc(Cl)cc2)C(=O)/C1=C\c1ccc(-c2ccc([N+](=O)[O-])cc2)o1`, the result in the experiment on LNCaP [1] and with LNCaP [7] was Active. The inhibition result in experiment [2], in experiment [3] and in experiment [6] was “Active” in each case. Also, the inhibition result in experiment [4] is “inactive”. For the same molecule, the inhibition entry in experiment [5] was “Dose-dependent effect”.
Turning to `O=C1NC(=S)N(c2ccccc2)C(=O)/C1=C/c1ccc(-c2cc([N+](=O)[O-])ccc2Cl)o1`, the result with LNCaP [1] and in the experiment on LNCaP [7] was Active. Further, the inhibition entry in experiment [2], in experiment [3] and in experiment [6] was “Active” each time. Also, the inhibition result in experiment [4] was “inactive”. In experiment [5], the inhibition result was “Dose-dependent effect”.
With `S=C(Nc1ccc2nc(-c3ccco3)c(-c3ccco3)nc2c1)N1CCCCCC1`, the result in the experiment with LNCaP [1] and with LNCaP [7] was Active. Moreover, the inhibition entry in experiment [2], in experiment [3] and in experiment [6] was “Active” each time. In addition, the inhibition entry in experiment [4] is “inactive”. Also, the inhibition entry in experiment [5] is “Dose-dependent effect”.
Take `O=C1NC(=O)N(c2ccc(F)cc2)C(=O)/C1=C/c1ccc(Sc2ccc(Cl)cc2)o1`: the outcome in the experiment with LNCaP [1] and with LNCaP [7] was Active. Further, the inhibition result in experiment [2], in experiment [3] and in experiment [6] was “Active” in each case. The inhibition result in experiment [4] was “inactive”. Further, the inhibition result in experiment [5] is “Dose-dependent effect”.
Turning to `Cc1cc(/C=C2\C(=O)NC(=S)N(c3ccc(Cl)cc3)C2=O)c(C)n1-c1ccc([N+](=O)[O-])cc1`, the result with LNCaP [1] and with LNCaP [7] was Active. In addition, the inhibition entry in experiment [2], in experiment [3] and in experiment [6] was “Active” throughout. The inhibition entry in experiment [4] is “inactive”. For the same molecule, the inhibition entry in experiment [5] is “Dose-dependent effect”.
For `O=C1NC(=S)NC(=O)C1=Cc1ccc(-c2cc(Cl)ccc2Cl)o1`, the outcome in the experiment on LNCaP [1] and in the experiment on LNCaP [7] was Active. In addition, the inhibition entry in experiment [2], in experiment [3] and in experiment [6] was “Active” each time. The inhibition entry in experiment [4] was “inactive”. Moreover, the inhibition entry in experiment [5] was “Dose-dependent effect”.
Turning to `COc1ccccc1/C=N\NC(=O)c1cc2c(C)nn(-c3ccccc3)c2s1`, the result in the experiment with LNCaP [1] and in the experiment with LNCaP [7] was Active. Further, the inhibition result in experiment [2], in experiment [3] and in experiment [6] was “Active” throughout. Besides, the inhibition entry in experiment [4] was “inactive”. Also, in experiment [5], the inhibition result was “Dose-dependent effect”.
For the molecule `CCOC(=O)c1ccc(-c2ccc(/C=C3/C(=O)NC(=O)N(Cc4ccco4)C3=O)o2)cc1`, the result in the experiment with LNCaP [1] and with LNCaP [7] was Active. In addition, the inhibition entry in experiment [2], in experiment [3] and in experiment [6] was “Active” in each case. Moreover, the inhibition result in experiment [4] is “inactive”. The inhibition entry in experiment [5] was “Dose-dependent effect”.
For the molecule `O=C1NC(=S)N(c2ccccc2)C(=O)/C1=C/c1ccc(-c2ccc(F)cc2)o1`, the outcome with LNCaP [1] and with LNCaP [7] was Active. In addition, the inhibition result in experiment [2], in experiment [3] and in experiment [6] was “Active” throughout. Further, the inhibition entry in experiment [4] was “inactive”. In addition, the inhibition entry in experiment [5] is “Dose-dependent effect”.
For the molecule `COc1ccc(/C=C2\SC(=S)N(c3ccc([N+](=O)[O-])cc3)C2=O)cc1O`, the result in the experiment with LNCaP [1] and with LNCaP [7] was Active. Moreover, the inhibition entry in experiment [2], in experiment [3] and in experiment [6] was “Active” each time. For the same molecule, the inhibition entry in experiment [4] was “inactive”. Further, in experiment [5], the inhibition entry is “Dose-dependent effect”.
